Laboratory results published in patent US8080529B2, “Macrolides with anti-inflammatory activity” (Glaxo Group Limited, priority 2005, dated 2011).
Read-outs that look alike come from different tables or passages of the source.

Columns and labels:
Type in all cases: cell-based
IL-8 = assay: Inhibition of IL-8 production by stimulated human peripheral blood leukocytes in vitro; conditions: Homo sapiens, Leukocyte, read-out: Percentage of inhibition of IL-8 production
Experimental: (§1) Test substances used in in vitro experiments were dissolved in dimethyl sulfoxide (DMSO) (Kemika, Croatia) at concentrations of 50 mM and 10 mM, and were further diluted to final concentrations of 50 μM and 10 μM in 1 mL Dulbecco's modified Eagle medium (DMEM) supplemented with 1% heat inactivated fetal bovine serum (FBS), 1% L-glutamine, 50 U/ml penicillin, 50 μg/ml streptomycin and 2.5 μg/mL Fungizone (amphotericin B). Media and all media supplements were purchased from Gibco, Australia, except the FBS was purchased from Sigma, USA.
(§2) Peripheral blood leukocytes (PBL) were obtained from venous blood of healthy volunteers by sedimentation on 2% dextran T-500 (Amersham Biosciences, USA) and subsequent centrifugations of leukocyte rich plasma.
(§3) Peripheral blood leukocytes (PBL), isolated as described above, were seeded in a 48-well plate at a concentration of 3 to 5×10^6 cell per well in culture medium consisting of RPMI 1640 medium (Institute of Immunology, Croatia) supplemented with 10% heat-inactivated fetal calf serum (FCS, Biowhittaker, USA), 100 U/ml penicillin (Gibco, Australia), 100 μg/ml streptomycin (Gibco, Australia) and 2 mM L-glutamine (Gibco, Australia), and preincubated with the test compounds for 2 h at 37° C., in an atmosphere of 5% CO2, and 90% humidity. Then, stimuli (Sigma, USA) were added to a final concentration of 2 μg/mL lipopolysaccharide (LPS), 1 μg/mL phorbol 12-myristate 13-acetate (PMA) or 120 μg/mL zymosan. Samples were incubated overnight under conditions described above. At the end of incubation, the supernatants were transferred to eppendorf tubes and centrifuged for 10 min at 1500×g. Concentrations of human TNF-α, IL-1β, IL-6 and IL-8 were determined in cell supernatants by sandwich ELISA, using capture and detection antibodies (R&D Systems, Minneapolis, Minn.) according to the manufacturer's recommendations.
(§4) Inhibition (as percentage) was calculated using the following formula: % inhibition=(1−concentration of cytokines in sample/concentration of cytokines in positive control)×100.
(§5) The positive control refers to LPS-, PMA- or zymosan-stimulated samples that were not preincubated with test compounds.

IL-1α = assay: Inhibition of IL-1 production by stimulated human peripheral blood leukocytes in vitro; conditions: Homo sapiens, Leukocyte, read-out: Percentage of inhibition of IL-1α production
TNF-α = assay: Inhibition of TNF-α production by stimulated human peripheral blood leukocytes in vitro; conditions: Homo sapiens, Leukocyte, read-out: Percentage of inhibition of TNF-α production
Experimental: as §1, §2, §3, §4, §5

Hep G2 = assay: Cytotoxicity assay (MTT), Hep G2 cell line; conditions: 24 h
Experimental: (§6) To determine whether the anti-inflammatory activity of the test compounds was due to observed inhibition of cytokine production and inhibition of proliferation in vitro, and was not a consequence of cellular cytotoxicity, measurement of succinate dehydrogenase activity in living cells was performed. Cells were cultured for 24 h in RPM medium as described above at 37° C. the presence of the test compounds at concentrations of 50 μM and 12.5 μM. MTT [3-(4,5-dimethylthiazole-2-yl)-2,5-diphenyl tetrazolium bromide] (Promega, USA), a detection reagent, was then added and the cultures were incubated for 0.5-2 h. The amount of MTT-Formazan produced was determined using a spectrophotometer at 490 nm (Mosmann, J. Immunol. Methods, 1983, 65: 55-63).
(§7) The percentage of inhibition of cell growth was calculated using the following formula: % inhibition of cell growth=[…].

A549 = assay: Cytotoxicity assay (MTT), A549 cell line; conditions: 24 h
Experimental: as §6, §7

IL-6 = assay: Inhibition of IL-6 production by stimulated human peripheral blood leukocytes in vitro; conditions: Homo sapiens, Leukocyte, read-out: Percentage of inhibition of IL-6 production
Experimental: as §1, §2, §3, §4, §5

SMILES | inhibition at 10 µM (IL-8; LPS-stimulated PBL) [%] | inhibition at 10 µM (IL-8; PMA-stimulated PBL) [%] | inhibition at 10 µM (IL-8; zymosan-stimulated PBL) [%] | inhibition at 50 µM (IL-8; LPS-stimulated PBL) [%] | inhibition at 50 µM (IL-8; PMA-stimulated PBL) [%] | inhibition at 50 µM (IL-8; zymosan-stimulated PBL) [%] | inhibition at 10 µM (IL-1α; LPS-stimulated PBL) [%] | inhibition at 10 µM (IL-1α; PMA-stimulated PBL) [%] | inhibition at 10 µM (IL-1α; zymosan-stimulated PBL) [%] | inhibition at 50 µM (IL-1α; LPS-stimulated PBL) [%] | inhibition at 50 µM (IL-1α; PMA-stimulated PBL) [%] | inhibition at 50 µM (IL-1α; zymosan-stimulated PBL) [%] | inhibition at 10 µM (TNF-α; LPS-stimulated PBL) [%] | inhibition at 10 µM (TNF-α; PMA-stimulated PBL) [%] | inhibition at 10 µM (TNF-α; zymosan-stimulated PBL) [%] | inhibition at 50 µM (TNF-α; LPS-stimulated PBL) [%] | inhibition at 50 µM (TNF-α; PMA-stimulated PBL) [%] | inhibition at 50 µM (TNF-α; zymosan-stimulated PBL) [%] | Percentage of inhibition of cell growth (Hep G2; 12.5 μM) [%] | Percentage of inhibition of cell growth (Hep G2; 50 μM) [%] | further results
C=CC(=O)OC1[C@H](C)O[C@@H](O[C@H]2[C@H](C)[C@@H](O[C@@H]3O[C@H](C)C[C@H](NC)[C@H]3O)[C@](C)(OC)C[C@@H](C)C(=O)N[C@H](C)[C@@H](O)[C@](C)(O)[C@@H](CC)OC(=O)[C@@H]2C)C[C@@]1(C)OC (stereo partly shown) [Example 53, 3′-N-Demethyl-4″-O-acryloyl-6-O-methyl-9a-aza-9a-homoerythromycin A] | 9 | 30 | 19 | 100 | 63 | 92 | 83 | 92 | 92 | 95 | 99 | 100 | 28 | 82 | 64 | 100 | 100 | 100 | 0 | 2 | Percentage of inhibition of cell growth (A549; 12.5 μM): 9%; Percentage of inhibition of cell growth (A549; 50 μM): 12%; inhibition at 10 µM (IL-6; LPS-stimulated PBL): 20%; inhibition at 10 µM (IL-6; PMA-stimulated PBL): 66%; inhibition at 10 µM (IL-6; zymosan-stimulated PBL): 68%; inhibition at 50 µM (IL-6; LPS-stimulated PBL): 99%; inhibition at 50 µM (IL-6; PMA-stimulated PBL): 95%; inhibition at 50 µM (IL-6; zymosan-stimulated PBL): 100%
CC[C@H]1OC(=O)[C@H](C)[C@@H](O[C@H]2C[C@@](C)(OC)[C@@H](OC(=O)CCNC3CC3)[C@H](C)O2)[C@H](C)[C@@H](O[C@@H]2O[C@H](C)C[C@H](N(C)C)[C@H]2O)[C@](C)(OC)C[C@@H](C)C(=O)N[C@H](C)[C@@H](O)[C@]1(C)O [Example 40] | 24 | 31 | 6 | 0 | 12 | 0 | 0 | 0 | 1 | 28 | 0 | 55 | 67 | 55 | 60 | 82 | 77 | 76 | 2 | 2 | Percentage of inhibition of cell growth (A549; 12.5 μM): 0%; Percentage of inhibition of cell growth (A549; 50 μM): 0%; inhibition at 10 µM (IL-6; LPS-stimulated PBL): 7%; inhibition at 10 µM (IL-6; PMA-stimulated PBL): 0%; inhibition at 10 µM (IL-6; zymosan-stimulated PBL): 0%; inhibition at 50 µM (IL-6; LPS-stimulated PBL): 0%; inhibition at 50 µM (IL-6; PMA-stimulated PBL): 0%; inhibition at 50 µM (IL-6; zymosan-stimulated PBL): 0%
CC[C@H]1OC(=O)[C@H](C)[C@@H](O[C@H]2C[C@@](C)(OC)[C@@H](OC(=O)CCN3CCN(CCCN4CCCCC4)CC3)[C@H](C)O2)[C@H](C)[C@@H](O[C@@H]2O[C@H](C)C[C@H](N(C)C)[C@H]2O)[C@](C)(OC)C[C@@H](C)C(=O)N[C@H](C)[C@@H](O)[C@]1(C)O [Example 22] | 0 | 0 | 10 | 5 | 15 | 30 | 5 | 14 | 57 | 46 | 56 | 76 | 0 | 0 | 0 | 23 | 55 | 35 | 3 | 1 | Percentage of inhibition of cell growth (A549; 12.5 μM): 5%; Percentage of inhibition of cell growth (A549; 50 μM): 0%; inhibition at 10 µM (IL-6; LPS-stimulated PBL): 3%; inhibition at 10 µM (IL-6; PMA-stimulated PBL): 16%; inhibition at 10 µM (IL-6; zymosan-stimulated PBL): 28%; inhibition at 50 µM (IL-6; LPS-stimulated PBL): 28%; inhibition at 50 µM (IL-6; PMA-stimulated PBL): 60%; inhibition at 50 µM (IL-6; zymosan-stimulated PBL): 51%
CC[C@H]1OC(=O)[C@H](C)[C@@H](O[C@H]2C[C@@](C)(OC)[C@@H](OC(=O)CCN(C)C3CCCCC3)[C@H](C)O2)[C@H](C)[C@@H](O[C@@H]2O[C@H](C)C[C@H](N(C)C)[C@H]2O)[C@](C)(OC)C[C@@H](C)C(=O)N[C@H](C)[C@@H](O)[C@]1(C)O [Example 25] | 0 | 0 | 17 | 45 | 34 | 63 | 22 | 58 | 82 | 61 | 86 | 93 | 0 | 41 | 19 | 71 | 91 | 88 | 10 | 8 | Percentage of inhibition of cell growth (A549; 12.5 μM): 8%; Percentage of inhibition of cell growth (A549; 50 μM): 4%; inhibition at 10 µM (IL-6; LPS-stimulated PBL): 4%; inhibition at 10 µM (IL-6; PMA-stimulated PBL): 51%; inhibition at 10 µM (IL-6; zymosan-stimulated PBL): 51%; inhibition at 50 µM (IL-6; LPS-stimulated PBL): 62%; inhibition at 50 µM (IL-6; PMA-stimulated PBL): 87%; inhibition at 50 µM (IL-6; zymosan-stimulated PBL): 86%
